Assay results as given in patent US5610038A, “Thiangazole, its preparation, compositions and use thereof” (Ciba-Geigy Corporation, priority 1990, dated 1997).
Values after ≈ are worked out from the molar mass of the structure shown.

Experiments:
[1] = tested on: Plutella xylostella caterpillars; experiment: F.11. Action against Plutella xylostella caterpillars; assay type: in vivo; details: cabbage plants, third-stage caterpillars, 3 days
Protocol: F. 11. Action against Plutella xylostella caterpillars
Young cabbage plants are sprayed with an aqueous emulsion comprising 400 ppm of the test compound. After the spray coating has dried, the cabbage plants are populated with 10 Plutella xylostella caterpillars in the third stage and placed in a plastics container. Evaluation is made 3 days later. The percentage reduction in the population or the percentage reduction in feeding damage (% activity) is determined by comparing the number of dead caterpillars and the feeding damage on the treated plants with that on untreated plants. […] The activity is over 80%.

[2] = tested on: cestodes such as Moniezia benedeni; experiment: F.2. Trial with sheep infested with cestodes; assay type: in vivo; details: dose of less than 20 mg/kg body weight, single dose
Protocol: F.2. Trial with sheep infested wtih cestodes such as Moniezia benedeni
The active ingredient is administered in the form of a suspension using a stomach probe or by intraruminal injection to sheep that have previously been artificially infested with cestodes, such as Moniezia benedeni. 1 to 3 animals are used for each dose per trial. Each sheep is treated only once with a single dose. Seven to ten days after treatment the sheep are sacrificed and dissected. The evaluation is carded out by counting the worms remaining in the intestine after the treatment. Sheep simultaneously and similarly infested but untreated are used as a control or comparison. In this test thiangazole effects an approximately 90% reduction in cestode infestation at a dose of less than 20 mg/kg body weight.

[3] = tested on: Heliothis virescens caterpillars; experiment: F.10. Action against Heliothis virescens caterpillars; assay type: in vivo; details: 400 ppm, soybean plants, first-stage caterpillars, 6 days
Protocol: F. 10. Action against Heliothis virescens caterpillars
Young soybean plants are sprayed with an aqueous emulsion comprising 400 ppm of the test compound. After the spray coating has dried, the soybean plants are populated with 10 Heliothis virescens caterpillars in the first stage and placed in a plastics container. Evaluation is made 6 days later. The percentage reduction in the population or the percentage reduction in feeding damage(% activity) is determined by comparing the number of dead caterpillars and the feeding damage on the treated plants with that on untreated plants.

Heliothis virescens = experiment: F.7. Ovicidal/larvicidal action against Heliothis virescens; assay type: in vivo; details: 400 ppm, egg deposits on cotton, 8 days
Protocol: F.7. Ovicidal/larvicidal action against Heliothis virescens
Egg deposits of Heliothis virescens on cotton are sprayed with an aqueous emulsion comprising 400 ppm of test compound. 8 days later, the percentage of eggs which have hatched and the survival rate of the caterpillars are evaluated in comparison with untreated controls (% reduction in the population).

Tetranychus urticae = experiment: F.9 Action against Tetranychus urticae; assay type: in vivo; details: 144 h, bean plants, 6 days at 25° C., read-out: activity (percentage reduction in the population)
Protocol: F.9 Action against Tetranychus urticae
Young bean plants are populated with a mixed population of Tetranychus urticae and sprayed one day later with an aqueous emulsion comprising 400 ppm of the test compound. The plants are then incubated for 6 days at 25° C. and then evaluated. The percentage reduction in the population (% activity) is determined by comparing the number of dead eggs, larvae and adults on the treated plants with that on untreated plants.

[4] = tested on: sub-mitochondrial particles of deer heart; experiment: NADH oxidation in sub-mitochondrial particles; assay type: biochemical
Lucilia cuprina = experiment: F.5. Action against Lucilia cuprina; assay type: in vivo; details: test solution comprising 16 ppm, evaluation after 96 hours
Protocol: F.5. Action against Lucilia cuprina Freshly deposited eggs of the blow fly species Lucilia cuprina are introduced in small portions (30-50 eggs) into test tubes in which 4 ml of nutrient medium have previously been mixed with 1 ml of test solution comprising 16 ppm of the test compound. After inoculation of the culture medium the test tubes are closed with a cotton wool plug and incubated in an incubator at 30° C. for four days. By this time, larvae approximately 1 cm long (stage 3) have developed in the untreated medium. If a compound is active the larvae are at this time either dead or clearly retarded. Evaluation is effected after 96 hours.

Lucille sericata = experiment: F.4. Action against Lucille sericata; assay type: in vivo; details: 10-0.01 ppm, eggs/larvae, 30° C., four days
Protocol: F.4. Action against Lucille sericata
Freshly deposited eggs of the blow fly Lucille sericata are introduced in small portions (30-50 eggs) into test tubes in which 4 ml of nutrient medium have previously been mixed with 1 ml of test solution in the intermediate dilution required for the final concentration. After inoculation of the culture medium the test tubes are closed with a cotton wool plug and incubated in an incubator at 30° C. for four days. By this time, larvae approximately 1 cm long (stage 3) have developed in the medium that, for comparison, has not been treated. If a compound is active, the larvae are at this time either dead or moribund and clearly retarded. The test is carried out simultaneously at concentrations of from 10-0.01 ppm. The activity is measured at the lowest fully active concentration (LC 100). The test includes both compounds that are effective by contact and those that are effective as an ingested poison. Repellence is also taken into account, since the larvae migrate from the medium and starve.

Aphis craccivora = experiment: F.8. Action against Aphis craccivora; assay type: in vivo; details: pea seedlings, 3 and 6 days, read-out: activity (percentage reduction in the population)
Protocol: F.8. Action against Aphis craccivora
Pea seedlings are infested with Aphis craccivora and then sprayed with a spray mixture comprising 400 ppm of the test compound, and incubated at 20° C. Evaluation is made 3 and 6 days later. The percentage reduction in the population (% activity) is determined by comparing the number of dead aphids on the treated plants with that on untreated plants.

Ustilago maydis = experiment: MIC, agar diffusion test / series dilution test; assay type: cell-based; details: Mycosarcoma maydis
Protocol: (§1) The antibiotic activity is determined by means of an agar diffusion test with reference to the inhibiting areola diameter, or from the culture density in a series dilution test.

Dermanyssus gallinae = experiment: F.3. Action against Dermanyssus gallinae; assay type: in vivo; details: 72 h, after 3 days, read-out: activity (mortality of the mites)
Protocol: F.3. Action against Dermanyssus gallinae
2 to 3 ml of a solution comprising 100 ppm of test compound, and approximately 200 mites at various stages of development, are placed in a glass container that is open at the top. The container is then closed with a cotton wool plug, shaken for 10 minutes until the mites are completely wetted, and then inverted for a short time so that the remaining test solution can be absorbed by the cotton wool. After 3 days, the mortality of the mites is determined as a percentage by counting the number of dead individuals.

Pythium debaryanum = experiment: Antibiotic activity, agar diffusion test / series dilution test; assay type: cell-based
Protocol: as §1

Mucor hiemalis = experiment: as above; assay type: cell-based
Protocol: as §1

Botrytis cinerea = experiment: as above; assay type: cell-based
Protocol: as §1

Rhizopus arrhizus = experiment: as above; assay type: cell-based
Protocol: as §1

Gibberella fujikuroi = experiment: as above; assay type: cell-based
Protocol: as §1

Fasciola hepatica = experiment: F.6. Trial with sheep infested with Fasciola hepatica; assay type: in vivo; details: doses of less than 50 mg of active ingredient/kg of body weight, single dose
Protocol: F.6. Trial with sheep infested with Fasciola hepatica
The active ingredient is administered in the form of a suspension using a stomach probe or by intraruminal injection to sheep that have previously been artificially infested with Fasciola hepatica. 3 animals am used for each dose per trial. Each animal is treated only once with a single dose.
(§2) A first evaluation is made by comparing the number of worm eggs excreted in the faeces of the sheep before and after treatment.
Three to four weeks after treatment the sheep are sacrificed and dissected. The evaluation is carried out by counting the liver flukes remaining in the gall-bladder ducts after treatment. Sheep simultaneously and similarly infested but untreated are used as a control or comparison. The difference in the number of liver flukes counted in the two groups gives the degree of effectiveness of the test compound.

[5] = tested on: nematodes such as Haemonchus contortus and Trichostrongylus colubriformis; experiment: F.1. Trial with sheep infested with nematodes; assay type: in vivo; details: single dose
Protocol: F.1. Trial with sheep infested with nematodes such as Haemonchus contortus and Trichostrongylus colubriformis
Thiangazole is administered in the form of a suspension using a stomach probe or by intraruminal injection to sheep that have previously been artificially infested with nematodes, such as Haemonchus contortus and Trichostrongylus colubriformis. 1 to 3 animals are used for each dose per trial. Each sheep is treated only once with a single dose.
as §2
Seven to ten days after treatment the sheep are sacrificed and dissected. The evaluation is carded out by counting the worms remaining in the intestine after the treatment. Sheep simultaneously and similarly infested but untreated are used as a control or comparison.

[6] = tested on: benzimidazole-resistant nematodes; details: ruminants, doses tolerated by the host animal; cited from earlier work
adult liver flukes = details: ruminants, doses tolerated by the host animal; cited from earlier work

## CNC(=O)c1nc(C2(C)CSC(C3(C)CSC(C4(C)CSC(C=Cc5ccccc5)=N4)=N3)=N2)oc1C (stereo not shown) [Thiangazole, thiangazole]
[1]; 400 ppm
  activity (reduction in the population or in feeding damage): good activity (The good pesticidal activity of the compounds of formulae I and Ia according to the invention corresponds to a mortality of at least 50-60% of the mentioned pests)
[1]; Plutella xylostella, 72 h, read-out: % activity (reduction in the population or in feeding damage)
  activity at 400 ppm: > 80%
[2]
  reduction in cestode infestation: approximately 90%
[3]
  activity (reduction in the population or in feeding damage): very good activity
Heliothis virescens
  ovicidal/larvicidal activity (% reduction in the population): good activity (The good pesticidal activity of the compounds of formulae I and Ia according to the invention corresponds to a mortality of at least 50-60% of the mentioned pests)
Tetranychus urticae
  mortality at 400 ppm: ≥ 50%
[4]
  inhibition of NADH oxidation: inhibits NADH oxidation
Lucilia cuprina
  activity against larvae: very good activity
Lucille sericata
  activity at lowest fully active concentration (LC 100): full activity even at low concentrations
Aphis craccivora
  mortality at 400 ppm: ≥ 50%
Ustilago maydis
  MIC: 3.2 µg/mL (≈ 5.93 µM)
Dermanyssus gallinae
  mortality at 100 ppm: ≥ 50%
Pythium debaryanum
  growth inhibition of fungus: inhibits the growth
Mucor hiemalis
  growth inhibition of fungus: inhibits the growth
Botrytis cinerea
  growth inhibition of fungus: inhibits the growth
Rhizopus arrhizus
  growth inhibition of fungus: inhibits the growth
Gibberella fujikuroi
  growth inhibition of fungus: inhibits the growth
Fasciola hepatica
  activity against Fasciola hepatica (liver flukes remaining): good activity
[5]; 20 mg of active ingredient per kg of body weight
  reduction of nematode infestation: virtually complete reduction
[5]; stomach probe or intraruminal injection
  reduction in nematode infestation: sharp reduction in nematode infestation

## CCCSc1ccc2nc(NC(=O)OC)[nH]c2c1 [Albendazole]
[6]
  anthelmintic activity: totally inadequate
Adult liver flukes
  anthelmintic activity: totally inadequate
